Consider three compounds from PMC9541843, “N‐terminal alterations turn the gut hormone GLP‐2 into an antagonist with gradual loss of GLP‐2 receptor selectivity towards more GLP‐1 receptor interaction” (British Journal of Pharmacology, 2022).

In assay [1] the target is T1, human GLP‐2R (Homo sapiens, UniProt O95838).
T1 sequence (O95838 1-553): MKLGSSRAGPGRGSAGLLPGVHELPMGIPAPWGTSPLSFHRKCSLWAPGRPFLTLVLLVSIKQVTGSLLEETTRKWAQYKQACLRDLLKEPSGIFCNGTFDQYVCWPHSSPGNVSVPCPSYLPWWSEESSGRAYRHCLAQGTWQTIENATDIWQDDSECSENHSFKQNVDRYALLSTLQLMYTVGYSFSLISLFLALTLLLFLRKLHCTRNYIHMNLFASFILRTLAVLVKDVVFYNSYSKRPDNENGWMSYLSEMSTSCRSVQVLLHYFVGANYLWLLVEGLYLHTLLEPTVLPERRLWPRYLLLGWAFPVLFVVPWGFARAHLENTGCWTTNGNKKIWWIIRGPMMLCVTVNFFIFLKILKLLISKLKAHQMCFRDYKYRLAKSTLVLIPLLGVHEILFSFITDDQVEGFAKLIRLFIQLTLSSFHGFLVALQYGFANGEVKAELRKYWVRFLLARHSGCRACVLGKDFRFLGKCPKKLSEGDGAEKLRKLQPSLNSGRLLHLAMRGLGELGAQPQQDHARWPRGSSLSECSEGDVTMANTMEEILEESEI
Put plainly: Schild plot analysis of cAMP activation curve of GLP‐2. Conditions: COS‐7 cells, n = 5 in duplicate, read-out: Ki from Schild plot (pA2) (converted). The assay is classed as cell-based. Further details: host or cells: COS-7 (transient, calcium phosphate). Here is the method:
Statistical significance was accepted at P < 0.05.
We used a Schild plot approach, where we examined their ability to right‐shift the cAMP activation curve of native GLP‐2 (Figure 4a–d). For GLP‐2(2‐33), GLP‐(3‐33) and GLP‐2(4‐33), all having intrinsic activity, the Schild plot analysis was based on an equieffective DR (the concentrations at 60% of Emax). For GLP‐2(3‐33)[D3A], with no intrinsic activity, the Schild plot analysis was conducted based on the shift in the EC50 values for GLP‐2 with and without GLP‐2(3‐33)[D3A] as previously described (Sparre‐Ulrich et al., [2017]).

Assay [2] concerns the target T1, human GLP‐2R. The experiment in a line: cAMP accumulation, inhibition of GLP‐2‐induced activation.
The target in assay [3] is T1, human GLP‐2R. Put plainly: cAMP accumulation, agonism (HitHunter cAMP assay). The note with it: SEM. (Changes in cAMP serve as a functional read-out for many G protein-coupled receptors.)
The target of assay [4] is T1, human GLP‐2R. Put plainly: cell-based. Conditions: SEM.
Protocol: After incubation, the cells were washed twice in 400 μl per well ice‐cold binding buffer and lysed using 500 μl per well of 200 mM NaOH with 1% SDS for 30 min. The samples were counted using the Wizard Gamma Counter (PerkinElmer, Waltham, MA).
For assay [5], the target named is T2, human GLP‐1R (Homo sapiens, UniProt P43220). The experiment in a line: cAMP accumulation, agonism (selectivity).
Assay [6] deals with T2, human GLP‐1R. Put plainly: cAMP accumulation, inhibition of GLP‐1‐mediated response (selectivity). Conditions: for inhibition at 1 µM: COS-7, read-out: Inhibition of GLP‐1‐mediated cAMP response at the human GLP‐1R.

SMILES strings stand for the structures. Peptide text beside a SMILES is read from it. * marks the point of attachment. C16 diacid = O=C(O)CCCCCCCCCCCCCCC(=O)*

T2 sequence (P43220 24-463): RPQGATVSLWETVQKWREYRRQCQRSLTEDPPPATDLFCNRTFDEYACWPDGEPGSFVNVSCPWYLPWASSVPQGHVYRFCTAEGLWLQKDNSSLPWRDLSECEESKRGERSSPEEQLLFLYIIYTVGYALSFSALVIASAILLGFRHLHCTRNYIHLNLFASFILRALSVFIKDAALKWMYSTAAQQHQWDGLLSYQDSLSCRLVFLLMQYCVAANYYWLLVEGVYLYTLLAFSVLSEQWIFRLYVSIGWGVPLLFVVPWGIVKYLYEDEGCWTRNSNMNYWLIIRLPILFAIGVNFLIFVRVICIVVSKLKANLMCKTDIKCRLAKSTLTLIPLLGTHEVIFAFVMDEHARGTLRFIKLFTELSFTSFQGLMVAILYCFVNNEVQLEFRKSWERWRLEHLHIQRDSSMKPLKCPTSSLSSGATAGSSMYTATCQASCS

What is called Ki is the dissociation constant of the complex between target and ligand, obtained from inhibition or displacement. One may read the IC50 as the concentration that gives 50% inhibition. Low readings indicate inhibition by little substance, high ones a need for much substance. A word on the EC50: it is the concentration giving half of the maximal effect. As for `CC[C@H](C)[C@H](NC(=O)[C@H](Cc1ccccc1)NC(=O)[C@H](CC(=O)O)NC(=O)[C@H](CCCN=C(N)N)NC(=O)[C@H](C)NC(=O)[C@H](C)NC(=O)[C@H](CC(C)C)NC(=O)[C@H](CC(N)=O)NC(=O)[C@H](CC(=O)O)NC(=O)[C@H](CC(C)C)NC(=O)[C@@H](NC(=O)[C@@H](NC(=O)[C@H](CC(N)=O)NC(=O)[C@H](CCSC)NC(=O)[C@H](CCC(=O)O)NC(=O)[C@H](CC(=O)O)NC(=O)[C@H](CO)NC(=O)[C@H](Cc1ccccc1)NC(=O)[C@H](CO)NC(=O)CNC(=O)[C@@H](N)CC(=O)O)[C@@H](C)O)[C@@H](C)CC)C(=O)N[C@@H](CC(N)=O)C(=O)N[C@@H](Cc1c[nH]c2ccccc12)C(=O)N[C@@H](CC(C)C)C(=O)N[C@H](C(=O)N[C@@H](CCC(N)=O)C(=O)N[C@H](C(=O)N[C@@H](CCCCN)C(=O)N[C@H](C(=O)N[C@H](C(=O)N[C@@H](CC(=O)O)C(=O)O)[C@@H](C)O)[C@@H](C)CC)[C@@H](C)O)[C@@H](C)CC` [GLP‐2(3‐33)] (H-DGSFSDEMNTILDNLAARDFINWLIQTKITD-OH), at human GLP‐2R [1], the Ki was 126 nM. Further, the half-inhibitory concentration (IC50) on human GLP‐2R [2] was 204 nM; on human GLP‐2R [4], 7.94 nM. This compound also showed a half-maximal effective concentration (EC50) on human GLP‐2R [3] of 25.1 nM.
As a reminder, the inhibition is the share of the control response that was lost under treatment. The compound `CC[C@H](C)[C@H](NC(=O)[C@H](Cc1ccccc1)NC(=O)[C@H](CC(=O)O)NC(=O)[C@H](CCCNC(=N)N)NC(=O)[C@H](C)NC(=O)[C@H](C)NC(=O)[C@H](CC(C)C)NC(=O)[C@H](CC(N)=O)NC(=O)[C@H](CC(=O)O)NC(=O)[C@H](CC(C)C)NC(=O)[C@@H](NC(=O)[C@@H](NC(=O)[C@H](CC(N)=O)NC(=O)[C@H](CCSC)NC(=O)[C@H](CCC(=O)O)NC(=O)[C@H](CC(=O)O)NC(=O)[C@H](CO)NC(=O)[C@H](Cc1ccccc1)NC(=O)[C@H](CO)NC(=O)CNC(=O)CCCCCCCCCCCCCCC(=O)O)[C@@H](C)O)[C@@H](C)CC)C(=O)N[C@@H](CC(N)=O)C(=O)N[C@@H](Cc1c[nH]c2ccccc12)C(=O)N[C@@H](CC(C)C)C(=O)N[C@H](C(=O)N[C@@H](CCC(N)=O)C(=O)N[C@H](C(=O)N[C@@H](CCCCN)C(=O)N[C@H](C(=O)N[C@H](C(=O)N[C@@H](CC(=O)O)C(=O)O)[C@@H](C)O)[C@@H](C)CC)[C@@H](C)O)[C@@H](C)CC` [GLP‐2(4‐33)(C16‐diacid/4)] ({C16 diacid}-GSFSDEMNTILDNLAARDFINWLIQTKITD-OH) gave a half-inhibitory concentration (IC50) at human GLP‐2R [2] of 11.7 nM. The “Inhibition of GLP‐2‐induced cAMP at the human GLP‐2R” value at human GLP‐2R [2] (at 1 μM peptide (highest tested concentration), COS‐7 cells) worked out at 95%. On human GLP‐1R [5], this compound returned an EC50 of 2.5 nM. Besides, the “Efficacy of GLP‐1R activation” value on human GLP‐1R [5] (COS‐7 cells, human GLP‐1R, cAMP, 1 μM stimulation, n = 3 in duplicate) stood at 16%. At human GLP‐1R [6], half-maximal inhibition (IC50) required 79 nM and the inhibition at 1 µM was determined as 41%.
Usually Emax stands for the greatest response seen or fitted, relative to the assay's reference. `CC[C@H](C)[C@H](NC(=O)[C@H](Cc1ccccc1)NC(=O)[C@H](CC(=O)O)NC(=O)[C@H](CCCNC(=N)N)NC(=O)[C@H](C)NC(=O)[C@H](C)NC(=O)[C@H](CC(C)C)NC(=O)[C@H](CC(N)=O)NC(=O)[C@H](CC(=O)O)NC(=O)[C@H](CC(C)C)NC(=O)[C@@H](NC(=O)[C@@H](NC(=O)[C@H](CC(N)=O)NC(=O)[C@H](CCSC)NC(=O)[C@H](CCC(=O)O)NC(=O)[C@H](CC(=O)O)NC(=O)[C@H](CO)NC(=O)[C@H](Cc1ccccc1)NC(=O)[C@H](CO)NC(=O)CNC(=O)[C@H](CC(=O)O)NC(=O)[C@H](C)N)[C@@H](C)O)[C@@H](C)CC)C(=O)N[C@@H](CC(N)=O)C(=O)N[C@@H](Cc1c[nH]c2ccccc12)C(=O)N[C@@H](CC(C)C)C(=O)N[C@H](C(=O)N[C@@H](CCC(N)=O)C(=O)N[C@H](C(=O)N[C@@H](CCCCN)C(=O)N[C@H](C(=O)N[C@H](C(=O)N[C@@H](CC(=O)O)C(=O)O)[C@@H](C)O)[C@@H](C)CC)[C@@H](C)O)[C@@H](C)CC` [GLP‐2(2‐33)] (H-ADGSFSDEMNTILDNLAARDFINWLIQTKITD-OH): the Ki on human GLP‐2R [1] is 40 nM. In addition, the IC50 against human GLP‐2R [2] is 174 nM; against human GLP‐2R [4] it was 7.94 nM. In addition, the Emax on human GLP‐2R [3] (COS-7, read-out: cAMP activation Emax ± SEM) came to 20 ± 3.2%. Further, on human GLP‐2R [3], the EC50 is 7.94 nM. Also, the inhibition at 1 µM at human GLP‐1R [6] is 30 to 38%.
